As usually defined, the MIC is the lowest concentration that inhibits growth of the organism. Low readings indicate a more susceptible organism, high ones a less susceptible organism.

≈ marks a conversion by molar mass, not a printed value.

The test system of assay [1] is Escherichia coli. The assay is described as follows: Antibacterial activity against Escherichia coli. It is filed as functional.
In assay [2] the test system is Escherichia coli. The assay is described as follows: Antibacterial activity against Escherichia coli at 50 ug/mL. Format: functional. The conditions noted are these: read-out: IZ.
Assay [3] has as its system Salmonella typhi. The assay is described as follows: Antibacterial activity against Salmonella typhi at 100 ug/mL. The note with it: read-out: IZ.
Assay [4] has as its system Escherichia coli. The assay is described as follows: Antibacterial activity against Escherichia coli at 100 ug/mL. It is filed as functional. The note with it: read-out: IZ.
Assay [5] relates to Aspergillus flavus. The assay is described as follows: Antifungal activity against Aspergillus flavus at 100 ug/mL. Format: functional. The conditions noted are these: read-out: IZ.
The subject of assay [6] is Fusarium oxysporum. The assay is described as follows: Antifungal activity against Fusarium oxysporum. It is filed as functional.
The subject of assay [7] is Penicillium citrinum. The assay is described as follows: Antifungal activity against Penicillium citrinum. It is filed as functional.
Assay [8] concerns Salmonella typhi. The assay is described as follows: Antibacterial activity against Salmonella typhi at 50 ug/mL. The conditions noted are these: read-out: IZ.
The subject of assay [9] is Penicillium citrinum. The assay is described as follows: Antifungal activity against Penicillium citrinum at 50 ug/mL. Format: functional. The note with it: read-out: IZ.
For assay [10], the system named is Salmonella typhi. The assay is described as follows: Antibacterial activity against Salmonella typhi.
Assay [11] concerns Fusarium oxysporum. The assay is described as follows: Antifungal activity against Fusarium oxysporum at 50 ug/mL. The conditions noted are these: read-out: IZ. Format: functional.
The test system of assay [12] is Fusarium oxysporum. The assay is described as follows: Antifungal activity against Fusarium oxysporum at 100 ug/mL. Format: functional. The note with it: read-out: IZ.
In assay [13] the test system is Aspergillus flavus. The assay is described as follows: Antifungal activity against Aspergillus flavus at 50 ug/mL. Format: functional. The note with it: read-out: IZ.
In assay [14] the test system is Bacillus subtilis. The assay is described as follows: Antibacterial activity against Bacillus subtilis at 100 ug/mL. It is filed as functional. The conditions noted are these: read-out: IZ.
Assay [15] relates to Penicillium citrinum. The assay is described as follows: Antifungal activity against Penicillium citrinum at 100 ug/mL. The note with it: read-out: IZ. Format: functional.
The subject of assay [16] is Bacillus subtilis. The assay is described as follows: Antibacterial activity against Bacillus subtilis at 50 ug/mL. The conditions noted are these: read-out: IZ. Format: functional.
Assay [17] relates to Aspergillus flavus. The assay is described as follows: Antifungal activity against Aspergillus flavus. It is filed as functional.
In assay [18] the test system is Bacillus subtilis. The assay is described as follows: Antibacterial activity against Bacillus subtilis. Format: functional.

Consider `CCOC(=O)Cn1ncc2cc([N+](=O)[O-])ccc21`, for which the MIC against Escherichia coli [1] is 35 µg/mL (≈ 140 µM); in the assay on Fusarium oxysporum [6], 30 µg/mL (≈ 120 µM); with Penicillium citrinum [7], 40 µg/mL (≈ 160 µM); with Salmonella typhi [10] it was 38 µg/mL (≈ 152 µM); against Aspergillus flavus [17], 34 µg/mL (≈ 136 µM); against Bacillus subtilis [18], 45 µg/mL (≈ 181 µM). Moreover, the zone of inhibition at 50 µg/mL in the assay on Escherichia coli [2] came out at 5 mm; in the assay on Salmonella typhi [8], 4 mm; in the assay with Penicillium citrinum [9] it was 4 mm; with Fusarium oxysporum [11] it was 6.5 mm; in the assay with Aspergillus flavus [13], 5.8 mm; with Bacillus subtilis [16], 3 mm. The zone of inhibition at 100 µg/mL in the assay on Salmonella typhi [3] is 7 mm; in the assay on Escherichia coli [4], 8 mm; with Aspergillus flavus [5], 8 mm; in the assay on Fusarium oxysporum [12] it was 9 mm; in the assay with Bacillus subtilis [14] it was 5 mm; in the assay with Penicillium citrinum [15], 6 mm.

With `NNC(=O)Cn1ncc2cc([N+](=O)[O-])ccc21`, the MIC was determined as 32 µg/mL (≈ 136 µM) with Escherichia coli [1]; 28 µg/mL (≈ 119 µM) against Fusarium oxysporum [6]; 38 µg/mL (≈ 162 µM) in the assay on Penicillium citrinum [7]; 36 µg/mL (≈ 153 µM) in the assay with Salmonella typhi [10]; 32 µg/mL (≈ 136 µM) with Aspergillus flavus [17]; 43 µg/mL (≈ 183 µM) against Bacillus subtilis [18]. Moreover, the zone of inhibition at 50 µg/mL was found to be 7 mm in the assay on Escherichia coli [2]; 6 mm in the assay on Salmonella typhi [8]; 6 mm in the assay with Penicillium citrinum [9]; 8.3 mm with Fusarium oxysporum [11]; 7 mm in the assay with Aspergillus flavus [13]; 5 mm in the assay with Bacillus subtilis [16]. In addition, the zone of inhibition at 100 µg/mL with Salmonella typhi [3] was determined as 8 mm; in the assay on Escherichia coli [4], 10 mm; in the assay on Aspergillus flavus [5], 10 mm; with Fusarium oxysporum [12], 10.5 mm; in the assay with Bacillus subtilis [14] it was 7 mm; in the assay on Penicillium citrinum [15], 8.9 mm.

For `O=C(Cn1ncc2cc([N+](=O)[O-])ccc21)N/N=C/c1ccccc1`, the MIC against Escherichia coli [1] was 22 µg/mL (≈ 68 µM); in the assay with Fusarium oxysporum [6] it was 17 µg/mL (≈ 52.6 µM); against Penicillium citrinum [7], 30 µg/mL (≈ 92.8 µM); against Salmonella typhi [10] it was 22 µg/mL (≈ 68 µM); in the assay with Aspergillus flavus [17], 20 µg/mL (≈ 61.9 µM); against Bacillus subtilis [18], 30 µg/mL (≈ 92.8 µM). Moreover, the zone of inhibition at 50 µg/mL is 14 mm with Escherichia coli [2]; 12.7 mm in the assay on Salmonella typhi [8]; 11.5 mm in the assay with Penicillium citrinum [9]; 15 mm in the assay with Fusarium oxysporum [11]; 13.6 mm in the assay with Aspergillus flavus [13]; 11.5 mm in the assay with Bacillus subtilis [16]. Also, the zone of inhibition at 100 µg/mL with Salmonella typhi [3] stood at 16 mm; in the assay on Escherichia coli [4], 16.4 mm; in the assay with Aspergillus flavus [5], 16.7 mm; with Fusarium oxysporum [12] it was 17.4 mm; in the assay with Bacillus subtilis [14] it was 14.8 mm; with Penicillium citrinum [15], 15.5 mm.

`O=C(Cn1ncc2cc([N+](=O)[O-])ccc21)N/N=C/c1ccccc1O`: the MIC amounted to 20 µg/mL (≈ 58.9 µM) in the assay with Escherichia coli [1]; 15 µg/mL (≈ 44.2 µM) in the assay on Fusarium oxysporum [6]; 28 µg/mL (≈ 82.5 µM) in the assay on Penicillium citrinum [7]; 20 µg/mL (≈ 58.9 µM) with Salmonella typhi [10]; 19 µg/mL (≈ 56 µM) in the assay on Aspergillus flavus [17]; 25 µg/mL (≈ 73.7 µM) against Bacillus subtilis [18]. Besides, the zone of inhibition at 50 µg/mL in the assay with Escherichia coli [2] is 15.4 mm; with Salmonella typhi [8], 13.8 mm; with Penicillium citrinum [9], 12 mm; with Fusarium oxysporum [11], 16.2 mm; in the assay on Aspergillus flavus [13], 14.9 mm; with Bacillus subtilis [16] it was 12.8 mm. The zone of inhibition at 100 µg/mL with Salmonella typhi [3] was determined as 17.5 mm; in the assay with Escherichia coli [4], 18 mm; in the assay with Aspergillus flavus [5], 18 mm; in the assay with Fusarium oxysporum [12], 18.5 mm; in the assay with Bacillus subtilis [14] it was 16 mm; with Penicillium citrinum [15], 16.8 mm.

As for `O=C(Cn1ncc2cc([N+](=O)[O-])ccc21)N/N=C/c1ccccc1Cl`, the minimal inhibitory concentration (MIC) is 16 µg/mL (≈ 44.7 µM) in the assay on Escherichia coli [1]; 13 µg/mL (≈ 36.3 µM) in the assay on Fusarium oxysporum [6]; 22 µg/mL (≈ 61.5 µM) against Penicillium citrinum [7]; 17 µg/mL (≈ 47.5 µM) against Salmonella typhi [10]; 17 µg/mL (≈ 47.5 µM) in the assay with Aspergillus flavus [17]; 20 µg/mL (≈ 55.9 µM) in the assay on Bacillus subtilis [18]. Further, the zone of inhibition at 50 µg/mL in the assay on Escherichia coli [2] turned out to be 18.2 mm; with Salmonella typhi [8], 16.9 mm; in the assay on Penicillium citrinum [9], 15.8 mm; in the assay with Fusarium oxysporum [11], 20.1 mm; in the assay with Aspergillus flavus [13] it was 19 mm; with Bacillus subtilis [16], 16 mm. In addition, the zone of inhibition at 100 µg/mL came to 21 mm with Salmonella typhi [3]; 21 mm with Escherichia coli [4]; 22 mm with Aspergillus flavus [5]; 22 mm with Fusarium oxysporum [12]; 19.4 mm in the assay with Bacillus subtilis [14]; 20.5 mm in the assay with Penicillium citrinum [15].

Regarding `O=C(Cn1ncc2cc([N+](=O)[O-])ccc21)N/N=C/c1ccc(Cl)cc1`, the MIC in the assay on Escherichia coli [1] is 17 µg/mL (≈ 47.5 µM); in the assay on Fusarium oxysporum [6], 13 µg/mL (≈ 36.3 µM); in the assay with Penicillium citrinum [7], 20 µg/mL (≈ 55.9 µM); in the assay on Salmonella typhi [10] it was 17 µg/mL (≈ 47.5 µM); against Aspergillus flavus [17], 17 µg/mL (≈ 47.5 µM); in the assay on Bacillus subtilis [18], 18 µg/mL (≈ 50.3 µM). Besides, the zone of inhibition at 50 µg/mL in the assay on Escherichia coli [2] turned out to be 19 mm; with Salmonella typhi [8] it was 18 mm; in the assay with Penicillium citrinum [9], 16.8 mm; in the assay on Fusarium oxysporum [11], 20.8 mm; in the assay on Aspergillus flavus [13] it was 20 mm; in the assay with Bacillus subtilis [16], 16.8 mm. Also, the zone of inhibition at 100 µg/mL in the assay on Salmonella typhi [3] amounted to 21.7 mm; with Escherichia coli [4] it was 21.9 mm; with Aspergillus flavus [5] it was 22.7 mm; in the assay with Fusarium oxysporum [12] it was 22.9 mm; with Bacillus subtilis [14], 20.1 mm; in the assay on Penicillium citrinum [15], 21.4 mm.

As for `O=C(Cn1ncc2cc([N+](=O)[O-])ccc21)N/N=C/c1ccccc1Br`, the MIC against Escherichia coli [1] was found to be 18 µg/mL (≈ 44.8 µM); with Fusarium oxysporum [6], 15 µg/mL (≈ 37.3 µM); in the assay on Penicillium citrinum [7], 28 µg/mL (≈ 69.6 µM); in the assay with Salmonella typhi [10] it was 18 µg/mL (≈ 44.8 µM); in the assay with Aspergillus flavus [17], 19 µg/mL (≈ 47.2 µM); against Bacillus subtilis [18] it was 22 µg/mL (≈ 54.7 µM). Further, the zone of inhibition at 50 µg/mL was 16.8 mm in the assay on Escherichia coli [2]; 15 mm with Salmonella typhi [8]; 13.3 mm with Penicillium citrinum [9]; 17.8 mm in the assay with Fusarium oxysporum [11]; 16.4 mm with Aspergillus flavus [13]; 14 mm in the assay with Bacillus subtilis [16]. Besides, the zone of inhibition at 100 µg/mL with Salmonella typhi [3] was 19 mm; in the assay with Escherichia coli [4] it was 19.4 mm; in the assay with Aspergillus flavus [5] it was 19.4 mm; with Fusarium oxysporum [12], 19.8 mm; with Bacillus subtilis [14] it was 17.4 mm; in the assay with Penicillium citrinum [15] it was 18 mm.

Take `COC1=CC(=O)C[C@@H](C)[C@]12Oc1c(Cl)c(OC)cc(OC)c1C2=O` [GRISEOFULVIN]: the zone of inhibition at 100 µg/mL with Aspergillus flavus [5] was 30 mm; in the assay with Fusarium oxysporum [12] it was 32 mm; in the assay on Penicillium citrinum [15] it was 28 mm. Further, the MIC was 6 µg/mL (≈ 17 µM) in the assay with Fusarium oxysporum [6], 11 µg/mL (≈ 31.2 µM) with Penicillium citrinum [7] and 9 µg/mL (≈ 25.5 µM) with Aspergillus flavus [17]. For the same molecule, the zone of inhibition at 50 µg/mL with Penicillium citrinum [9] was found to be 25 mm; with Fusarium oxysporum [11] it was 28 mm; in the assay with Aspergillus flavus [13], 27 mm.

Take `CN[C@@H]1[C@H](O[C@H]2[C@H](O[C@H]3[C@H](O)[C@@H](O)[C@H](N=C(N)N)[C@@H](O)[C@@H]3N=C(N)N)O[C@@H](C)[C@]2(O)C=O)O[C@@H](CO)[C@H](O)[C@H]1O` [STREPTOMYCIN]: the MIC in the assay with Escherichia coli [1] came to 8 µg/mL (≈ 13.8 µM); with Salmonella typhi [10], 10 µg/mL (≈ 17.2 µM); against Bacillus subtilis [18], 12 µg/mL (≈ 20.6 µM). Also, the results for the zone of inhibition at 50 µg/mL in the assay on Escherichia coli [2], in the assay with Salmonella typhi [8] and in the assay on Bacillus subtilis [16] were 26 mm, 25 mm and 23 mm, respectively. The zone of inhibition at 100 µg/mL in the assay on Salmonella typhi [3] was 28 mm; with Escherichia coli [4], 30 mm; in the assay with Bacillus subtilis [14] it was 27 mm.

For the origin of these results see ChEMBL document CHEMBL1240428, “Conventional and microwave assisted synthesis of some new N-[(4-oxo-2-substituted aryl -1, 3-thiazolidine)-acetamidyl]-5-nitroindazoles and its antimicrobial activity” (2010).
